“And” between values parts separate entries of the source, which are not always exact repeats. Equal values may be shown once.
Tests used:
[1] = tested on: doxorubicin-resistant HCT116 (HCT116-Dox); details: read-out: Relative IC50, HCT116-Dox; 48 h incubation, MTS
Procedure: (§1) The cytotoxic potential of the complexes was evaluated by assessing their viability using the 3-(4,5-dimethylthiazol-2-yl)-5-(3-carboxymethoxyphenyl)-2-(4-sulfophenyl)-2H tetrazolium, inner salt (MTS) colorimetric assay in three tumor cell lines—ovarian carcinoma, A2780, colorectal carcinoma, HCT116, and colorectal carcinoma resistant to doxorubicin, HCT116-Dox and in normal human primary dermal fibroblasts (Figure 1 and Figure S7).
(§2) Normal dermal human fibroblasts, colorectal carcinoma cell line HCT116 and ovarian carcinoma cell line A2780 were acquired from ATCC (Manassas, VA, USA). HCT116 cell lines resistant to doxorubicin (HCT116-Dox) were derived from the HCT116 cell line, as previously described. Fibroblasts and HCT116 cells were cultured in Dulbecco’s modified Eagle medium (DMEM, Thermo Fisher Scientific) and A2780 cell line was cultured on Roswell Park Memorial institute 1640 (RPMI-1640, Thermo Fisher Scientific). Both media were supplemented with 10% (v/v) fetal bovine serum (FBS, Thermo Fisher Scientific) and a mixture of 100 U/mL penicillin and […] streptomycin. The supplemented media are referred to from this point on as DMEM or RPMI for simplicity.

[2] = tested on: normal human dermal fibroblasts; details: read-out: Relative IC50, Fibroblasts; 48 h incubation, MTS
Procedure: as §1, §2

A2780 cells = experiment: Production of reactive oxygen species (H2DCF-DA); type: cell-based, human; details: A2780, 48 h, IC50 of JHOR11
Procedure: Since the cytotoxicity of Ru(II) complexes is commonly accompanied by the induction of reactive oxygen species (ROS), the ROS concentration was quantified in A2780 cells exposed for 48 h to IC50 concentration of JHOR11, using DMSO 0.1% (v/v) as a vehicle control, and 3.5 µM cisplatin and 25 µM hydrogen peroxide (H2O2) as positive controls. The incubation with the dye 2′,7′-dichlorodihydrofluorescein diacetate (H2DCF-DA) that, in the presence of peroxides, emits green fluorescence after oxidation to 2′,7′-dichlorofluorescein (DCF), followed by fluorescence quantification by flow cytometry, allowed us to infer the induction of ROS.
The production of ROS was evaluated using the dye 2′,7′-dichlorodihydrofluorescein diacetate (H2DCF-DA, ThermoFisher Scientific) according to previously described procedures. […] The fluorescence was quantified in an Attune acoustic focusing cytometer and respective software (Thermo Fisher Scientific) and normalized to the fluorescence of vector control sample.

zebrafish embryos = experiment: In vivo toxicity assessment using zebrafish embryos
Procedure: The toxicity of the JHOR10 and JHOR11 compounds was assayed in zebrafish embryos. There was a NOEC (No Observed Effect Concentration) in the case of JHOR11 of 80 µM (Table 2). The NOEC is the concentration used for the xenotransplantation experiments in order not to affect the normal development of the embryos and being able, in parallel, to assay the effect of the compound over the injected cells. Apart from that, the mortality assayed in the toxicity assays supports the concentration obtained in the NOEC, with a low mortality of the embryos when they are incubated with JHOR11 (Figure 13 and Figure 14).
Wild-type zebrafish were housed in 30 L tanks within a water recirculation system under controlled physicochemical conditions: pH 7–7.5, temperature 26 ± 2 °C, conductivity 600 µS/cm and light/dark photoperiod of 14/10 h. The adult fish were fed Gemma Micro 300 (Skretting) twice a day. Fertilized eggs were collected after natural spawning and stored in Petri dishes for 48 h until being injected, or 72 h until being exposed to different concentrations of ruthenium compounds.
At 72 h post-fertilization (hpf), the embryos were exposed to increasing concentrations of two ruthenium compounds to determine toxicological estimates: LC50 with no observed effect concentration (NOEC) and lowest observed effect concentration (LOEC). The acute toxicity assessment of the compounds was performed following the standards of the OECD Test Guideline Program.
The embryos were individually transferred to 96-well plates containing 100 µL of each desired concentration. The plates were then placed in an incubator with a temperature of 26 °C and a photoperiod of 14 h of light and 10 h of darkness. The duration of the experiment was 96 h, and observations were made every 24 h recording the four lethal effects indicated by the OECD: embryo coagulation, absence of somite formation, absence of separation of the yolk tail and absence of heartbeat. All compounds were dissolved with dimethylsulfoxide (DMSO) with a final concentration of 1%. In each test, seven concentrations were analyzed for each compound, these being: JHOR10 (10, 20, 30, 40, 50, 55, 60 µM) and JHOR11 (50, 80, 100, 140, 200, 300, 400 µM).
For the evaluation of toxicity, the mortality data were analyzed by probit analysis with the ToxRat software (ToxRat Solutions. 2003. ToxRat®. Software for the statistical analysis of biotests. Alsdorf, Germany).

[3] = zebrafish embryos exposed from 72 hpf, 96 h

Cc1ccc(C(C)C)cc1.F[P-](F)(F)(F)(F)F.O=C1C(=O)c2cccnc2-c2ncccc21.[Cl][Ru+] [JHOR11]
IC50 [1]: 6.8 ± 0.3 µM | IC50 [2]: 44.5 ± 2.2 µM | increase in intracellular ROS relative to vector control (A2780 cells): 1.72 ± 0.4 times | LC50 (zebrafish embryos; [3]): 225 µM | NOEC (No Observed Effect Concentration) (zebrafish embryos; [3]): 80 µM and 80.00 µM | mortality of the embryos (zebrafish embryos; zebrafish embryos incubated with compound): low mortality

Reference: PMC9656482, “In Vitro and In Vivo Biological Activity of Ruthenium 1,10-Phenanthroline-5,6-dione Arene Complexes” (International Journal of Molecular Sciences, 2022)
